The values below come from ChEMBL document CHEMBL3862010, “N-Arylsulfonyl-α-amino carboxamides are potent and selective inhibitors of the chemokine receptor CCR10 that show efficacy in the murine DNFB model of contact hypersensitivity” (Bioorg Med Chem Lett, 2016).

pIC50: −log10 of the molar value.

The first data set deals with T1, C-C chemokine receptor type 10 (Homo sapiens, UniProt P46092).
T1 sequence (P46092 whole entry): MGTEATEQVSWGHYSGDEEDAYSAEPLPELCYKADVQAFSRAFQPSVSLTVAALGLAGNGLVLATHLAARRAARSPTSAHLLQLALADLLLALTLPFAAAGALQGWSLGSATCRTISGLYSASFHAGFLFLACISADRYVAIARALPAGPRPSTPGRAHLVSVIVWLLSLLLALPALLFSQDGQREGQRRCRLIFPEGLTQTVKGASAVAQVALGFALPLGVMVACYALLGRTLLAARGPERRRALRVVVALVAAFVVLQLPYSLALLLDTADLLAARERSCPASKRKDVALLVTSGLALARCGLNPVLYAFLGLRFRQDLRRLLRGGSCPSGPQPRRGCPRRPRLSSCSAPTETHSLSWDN
The experiment in a line: Antagonist activity at human CCR10 expressed in CHOK1 cells coexpressing aequorin/Galphaq assessed as inhibition of human CCL27-dependent calcium flux in presence of coelenterazine H by chemiluminescence assay. The class given is functional, cell-based, CHO-K1. The conditions noted are these: read-out: IC50. On the technique in general: Calcium flux is commonly read through the fluorescence of an indicator in the cells.
For the compound `CC1CCN(C(=O)C(CCn2ccnc2[N+](=O)[O-])NS(=O)(=O)c2cc(Cl)c(N)c(Cl)c2)CC1` (configuration not stated), the negative-log IC50 (pIC50) (usually the negative decadic logarithm of the IC50, by convention in mol/L) is 6.16.

The same data set, now with this note: read-out: pIC50 (converted).
On to `CC1CCN(C(=O)C(CCn2cccc2)NS(=O)(=O)c2cc(Cl)c(N)c(Cl)c2)CC1` (configuration not stated), for which the IC50 was 1260 nM.
Same read-out and setting: with `CC1CCN(C(=O)C(CCn2cccc2C#N)NS(=O)(=O)c2cccc3ccccc23)CC1` (configuration not stated) the figure was 50.1 nM.
Still for that read-out and setting: with `CC1CCN(C(=O)C(CCn2cccc2C#N)NS(=O)(=O)c2ccc3[nH]ccc3c2)CC1` (configuration not stated) the figure was 200 nM.
The same measure, in the same setting: with `CC1CCN(C(=O)C(CCn2cncn2)NS(=O)(=O)c2cc(Cl)c(N)c(Cl)c2)CC1` (configuration not stated) the figure was more than 20000 nM; with `N#Cc1cccn1CCC(NS(=O)(=O)c1cc(Cl)c(N)c(Cl)c1)C(=O)N1CCCC1` (configuration not stated), more than 10000 nM.
In the case of `CC1CCN(C(=O)C(CCn2ccnc2Cl)NS(=O)(=O)c2cc(Cl)c(N)c(Cl)c2)CC1` (configuration not stated), the IC50 was 501 nM.
The same measure, in the same setting: with `CC1CCN(C(=O)[C@@H](CCn2ccnc2[N+](=O)[O-])NS(=O)(=O)c2cc(Cl)c(N)c(Cl)c2)CC1` the figure was 501 nM; with `N#Cc1cccn1CCC(NS(=O)(=O)c1cc(Cl)c(N)c(Cl)c1)C(=O)N1CCC(C(F)(F)F)CC1` (configuration not stated), 398 nM; with `CC1CCN(C(=O)[C@H](CCc2ccccc2)NS(=O)(=O)c2cc(Cl)c(N)c(Cl)c2)CC1`, more than 10000 nM.
Still for that read-out and setting: with `CC1CCN(C(=O)C(CCn2ccnc2C#N)NS(=O)(=O)c2cc(Cl)c(N)c(Cl)c2)CC1` (configuration not stated) the figure was 501 nM; with `CC1CCN(C(=O)C(CCn2cccc2C#N)NS(=O)(=O)c2ccc3cc[nH]c3c2)CC1` (configuration not stated), 7.94 nM; with `N#Cc1cccn1CCC(NS(=O)(=O)c1cccc2[nH]ccc12)C(=O)N1CCC(O)CC1` (configuration not stated), 126 nM.
Consider `N#Cc1cccn1CCC(NS(=O)(=O)c1cccc2[nH]ccc12)C(=O)N1CCCCCC1` (configuration not stated), for which the IC50 was 25.1 nM.
For `CC1CCN(C(=O)C(CCn2cccc2C#N)NS(=O)(=O)c2cccc3c2ccn3C)CC1` (configuration not stated), the IC50 is 126 nM.
For `CC1CCN(C(=O)C(CCn2nccc2C#N)NS(=O)(=O)c2cc(Cl)c(N)c(Cl)c2)CC1` (configuration not stated), the IC50 was 63.1 nM.
Consider `CC1CCCCN1C(=O)C(CCn1cccc1C#N)NS(=O)(=O)c1cc(Cl)c(N)c(Cl)c1` (configuration not stated), for which the IC50 was 794 nM.
Same read-out and setting: to `CC1CCN(C(=O)C(CCn2cccc2C#N)NS(=O)(=O)c2cccc3cc[nH]c23)CC1` (configuration not stated) belongs 251 nM; to `N#Cc1cccn1CCC(NS(=O)(=O)c1cc(Cl)c(N)c(Cl)c1)C(=O)N1CCCCC1` (configuration not stated), 158 nM; to `CC1CCN(C(=O)[C@@H](CCc2ccccc2)NS(=O)(=O)c2cc(Cl)c(N)c(Cl)c2)CC1`, 631 nM.
On the same count and under the same terms, with `CC1CCN(C(=O)C(CCn2cccc2C#N)NS(=O)(=O)c2c(N)cc(Cl)cc2Cl)CC1` (configuration not stated) the figure was 39.8 nM; with `CC1CCN(C(=O)C(CCn2ccnn2)NS(=O)(=O)c2cc(Cl)c(N)c(Cl)c2)CC1` (configuration not stated), more than 20000 nM.
Same read-out and setting: with `CN(C)C(=O)C(CCn1cccc1C#N)NS(=O)(=O)c1cc(Cl)c(N)c(Cl)c1` (configuration not stated) the figure was more than 10000 nM.
For `CC1CCN(C(=O)C(CCn2cccc2C#N)NS(=O)(=O)c2cc(Cl)c(N)cc2Cl)CC1` (configuration not stated), the IC50 was 63.1 nM.
On the same count and under the same terms, with `CC1CCN(C(=O)C(CCn2cccc2C#N)NS(=O)(=O)c2ccccc2)CC1` (configuration not stated) the figure was 1260 nM.
Still for that read-out and setting: with `CC1CCN(C(=O)[C@@H](CCn2cccc2C#N)NS(=O)(=O)c2cc(Cl)c(N)c(Cl)c2)CC1` the figure was 7.94 nM.
Same read-out and setting: with `CC1CCN(C(=O)[C@H](CCn2ccnc2[N+](=O)[O-])NS(=O)(=O)c2cc(Cl)c(N)c(Cl)c2)CC1` the figure was more than 20000 nM; with `CC1CCCN(C(=O)C(CCn2cccc2C#N)NS(=O)(=O)c2cccc3[nH]ccc23)C1` (configuration not stated), 63.1 nM; with `CC1CCCN(C(=O)C(CCn2cccc2C#N)NS(=O)(=O)c2cc(Cl)c(N)c(Cl)c2)C1` (configuration not stated), 631 nM.
For `N#Cc1cccn1CCC(NS(=O)(=O)c1cccc2[nH]ccc12)C(=O)N1CCCCC1` (configuration not stated), the IC50 is 10 nM.
On the same count and under the same terms, to `CN(C)C(=O)C(CCn1cccc1C#N)NS(=O)(=O)c1cccc2[nH]ccc12` (configuration not stated) belongs 3980 nM; to `CC1CCN(C(=O)C(CCc2ccccc2Cl)NS(=O)(=O)c2cc(Cl)c(N)c(Cl)c2)CC1` (configuration not stated), 126 nM.
Still for that read-out and setting: with `CC1CCN(C(=O)C(CCn2nccn2)NS(=O)(=O)c2cc(Cl)c(N)c(Cl)c2)CC1` (configuration not stated) the figure was 3160 nM.
The same measure, in the same setting: to `CC1CCCCN1C(=O)C(CCn1cccc1C#N)NS(=O)(=O)c1cccc2[nH]ccc12` (configuration not stated) belongs 20 nM; to `CC1CCN(C(=O)[C@H](CCn2cccc2C#N)NS(=O)(=O)c2cc(Cl)c(N)c(Cl)c2)CC1`, 15800 nM; to `CC1CCN(C(=O)C(CCn2cccn2)NS(=O)(=O)c2cc(Cl)c(N)c(Cl)c2)CC1` (configuration not stated), 1580 nM.
As for `CC1CCN(C(=O)C(CCn2nccc2Cl)NS(=O)(=O)c2cc(Cl)c(N)c(Cl)c2)CC1` (configuration not stated), the IC50 is 251 nM.
Take `N#Cc1cccn1CCC(NS(=O)(=O)c1cc(Cl)c(N)c(Cl)c1)C(=O)N1CCCCCC1` (configuration not stated): the IC50 is 251 nM.
Consider `Cc1ccc(S(=O)(=O)NC(CCn2cccc2C#N)C(=O)N2CCC(C)CC2)c(C)c1N` (configuration not stated), for which the IC50 was 100 nM.
On the same count and under the same terms, with `N#Cc1cccn1CCC(NS(=O)(=O)c1cccc2[nH]ccc12)C(=O)N1CCC(C(F)(F)F)CC1` (configuration not stated) the figure was 10 nM.
Same read-out and setting: with `CC1CCN(C(=O)C(CCn2cccc2C#N)NS(=O)(=O)c2cccc3[nH]ccc23)CC1` (stereo in doubt; form 2) the figure was 3160 nM.

Another data set addresses T2, C-C chemokine receptor type 10 (Mus musculus, UniProt Q9JL21).
T2 sequence (Q9JL21 whole entry): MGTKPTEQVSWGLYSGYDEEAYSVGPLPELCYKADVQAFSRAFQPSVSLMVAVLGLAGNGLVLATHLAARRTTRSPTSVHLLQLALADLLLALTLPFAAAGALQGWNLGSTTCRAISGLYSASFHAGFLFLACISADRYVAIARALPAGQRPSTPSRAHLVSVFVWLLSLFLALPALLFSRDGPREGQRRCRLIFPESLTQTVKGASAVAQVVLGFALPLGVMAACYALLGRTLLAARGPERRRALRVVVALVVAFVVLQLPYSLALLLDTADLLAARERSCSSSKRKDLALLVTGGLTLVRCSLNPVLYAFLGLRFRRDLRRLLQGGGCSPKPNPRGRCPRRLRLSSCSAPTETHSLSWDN
In words: Antagonist activity at mouse CCR10 expressed in CHOK1 cells coexpressing aequorin/Galphaq assessed as inhibition of CCL27-dependent calcium flux in presence of coelenterazine H by chemiluminescence assay. The class given is functional, cell-based, CHO-K1.
Conditions: not given
With `CC1CCN(C(=O)C(CCn2ccnc2Cl)NS(=O)(=O)c2cc(Cl)c(N)c(Cl)c2)CC1` (configuration not stated), the pIC50 is less than 4.70.
Turning to `CC1CCN(C(=O)C(CCn2cccc2C#N)NS(=O)(=O)c2ccc3cc[nH]c3c2)CC1` (configuration not stated), the negative-log IC50 (pIC50) was 6.00.
Same read-out and setting: to `CC1CCN(C(=O)C(CCn2cccc2C#N)NS(=O)(=O)c2cccc3c2ccn3C)CC1` (configuration not stated) belongs 5.20; to `CC1CCN(C(=O)C(CCn2nccc2C#N)NS(=O)(=O)c2cc(Cl)c(N)c(Cl)c2)CC1` (configuration not stated), 5.50; to `CC1CCN(C(=O)C(CCn2cccc2C#N)NS(=O)(=O)c2cccc3cc[nH]c23)CC1` (configuration not stated), 5.10.
Regarding `CC1CCN(C(=O)[C@@H](CCc2ccccc2)NS(=O)(=O)c2cc(Cl)c(N)c(Cl)c2)CC1`, the pIC50 was 5.00.
The same measure, in the same setting: to `CC1CCN(C(=O)C(CCn2cccc2C#N)NS(=O)(=O)c2ccccc2)CC1` (configuration not stated) belongs less than 4.70; to `CC1CCN(C(=O)C(CCn2ccnc2[N+](=O)[O-])NS(=O)(=O)c2cc(Cl)c(N)c(Cl)c2)CC1` (configuration not stated), less than 4.70.
For `CC1CCN(C(=O)C(CCn2cccc2C#N)NS(=O)(=O)c2cccc3[nH]ccc23)CC1` (stereo in doubt; form 2), the pIC50 is 4.80.

The target in a further data set is T1, C-C chemokine receptor type 10. In words: Antagonist activity at human CCR10 expressed in CHOK1 cells coexpressing aequorin/Galphaq assessed as inhibition of CCL27-dependent calcium flux in presence of coelenterazine H by FLIPR assay. The class given is functional, cell-based, CHO-K1.
Conditions: not given
For `CC1CCN(C(=O)C(CCn2ccnc2)NS(=O)(=O)c2cc(Cl)c(N)c(Cl)c2)CC1` (configuration not stated), the pIC50 is less than 4.70.
Take `CC1CCN(C(=O)C(CCn2ccnc2[N+](=O)[O-])NS(=O)(=O)c2cc(Cl)c(N)c(Cl)c2)CC1` (configuration not stated): the pIC50 is 6.60.

The next data set has the same target. In words: Antagonist activity at human CCR10 expressed in CHOK1 cells coexpressing aequorin/Galphaq assessed as inhibition of human CCL28-dependent calcium flux by FLIPR assay.
Conditions: not given
The class given is functional, cell-based, CHO-K1.
For `CC1CCN(C(=O)C(CCn2ccnc2[N+](=O)[O-])NS(=O)(=O)c2cc(Cl)c(N)c(Cl)c2)CC1` (configuration not stated), the negative logarithm of the IC50 (pIC50) is 6.10.

For another data set the target is unchanged. The experiment in a line: Antagonist activity at human CCR10 expressed in CHOK1 cells coexpressing aequorin/Galphaq assessed as inhibition of human CCL28-dependent calcium flux by chemiluminescence assay.
Conditions: not given
The class given is functional, cell-based, CHO-K1.
`CC1CCN(C(=O)C(CCn2ccnc2[N+](=O)[O-])NS(=O)(=O)c2cc(Cl)c(N)c(Cl)c2)CC1` (configuration not stated): the pIC50 was 6.10.

System in another data set: not listed separately
The experiment in a line: Protein binding in Balb/C mouse plasma at 100 mg/kg, ip bid. The class given is ADME, organism-based. The conditions noted are these: in vivo.
On to `CC1CCN(C(=O)C(CCn2cccc2C#N)NS(=O)(=O)c2cccc3[nH]ccc23)CC1` (stereo in doubt; form 2), for which the PPB amounted to 99%.

System in a further data set: not listed separately
The experiment in a line: Plasma concentration in Balb/C mouse at 100 mg/kg, ip bid measured after 1 hr. The following applies: in vivo. Type of data set: ADME, organism-based.
Compound `CC1CCN(C(=O)C(CCn2cccc2C#N)NS(=O)(=O)c2cccc3[nH]ccc23)CC1` (stereo in doubt; form 2) had a concentration of 18 µM.

System in a further data set: not listed separately
The experiment in a line: Plasma concentration in Balb/C mouse at 30 mg/kg, ip bid measured after 1 hr. The conditions noted are these: in vivo, 1 h. The class given is ADME, organism-based.
In turn, `CC1CCN(C(=O)C(CCn2cccc2C#N)NS(=O)(=O)c2cccc3[nH]ccc23)CC1` (stereo in doubt; form 2) displayed a concentration of 3.2 µM.
